Results published in patent US20080200403A1, “9A-Carbamoyl and Thiocarbamoyl Azalides with Anti-Inflammatory Activity” (GLAXOSMITHKLINE, priority 2005, published 2008).
Read-outs that look alike come from different tables or passages of the source.

Experiments:
[1] = test system: human peripheral blood mononuclear cells (PBMC); assay: Human T-cell proliferation in vitro (3H-thymidine incorporation); format: cell-based
Procedure: Influence of substances at two different concentrations (50 μM and 10 μM) on cell proliferation of human peripheral blood mononuclear cells (PBMC) was assessed.
Heparinized peripheral blood was obtained from healthy donors, and PBMC were isolated by Histopaque 1077 (Sigma, USA) density centrifugation at 400×g for 30 minutes. 5×10^4 cells/well were cultured for 3 days in the RPMI medium as described above, in the presence (positive control) or absence (negative control) of stimulators [PHA (2.5 μg/mL) (Sigma, USA), or both PMA (10 ng/mL) (Sigma, USA) and ionomycin (500 ng/mL) (Calbiochem, USA)], and in the presence of the test compounds, at 37° C. in an atmosphere of 5% CO2 and 90% humidity. The cells were pulsed with 1 μCi of ^3H-thymidine (Amersham, USA) per well during the last 18 h of the culture, and were harvested on the 96-well filter (Packard Bioscience, USA) using a multiple cell harvester (Packard, USA). The incorporation of ^3H-thymidine in activated cells were measured using TopCount NXT (Packard, USA).
Inhibition (as percentage) was calculated using the following formula: % inhibition=(1−(^3H)thymidine incorporation expressed in counts per minute (cpm) in sample/(^3H)thymidine incorporation expressed in cpm in positive control)×100
where positive control refers to stimulated samples, not treated with substances.

IL-6 = assay: Inhibition of IL-6 production by stimulated human peripheral blood leukocytes in vitro; format: cell-based; details: PBL; for inhibition at 10 µM / inhibition at 50 µM: Homo sapiens, Leukocyte, read-out: Percentage of inhibition of IL-6 production
Procedure: (§1) Test substances used in in vitro experiments were dissolved in dimethyl sulfoxide (DMSO) (Kemika, Croatia) at concentrations of 50 mM and 10 mM, and were further diluted to final concentrations of 50 μM and 10 μM in 1 mL Dulbecco's modified Eagle medium (DMEM) supplemented with 1% heat inactivated fetal bovine serum (FBS), 1% L-glutamine, 50 U/ml penicillin, 50 μg/ml streptomycin and 2.5 μg/mL Fungizone (amphotericin B). Media and all media supplements were purchased from Gibco, Australia, except the FBS was purchased from Sigma, USA.
(§2) Peripheral blood leukocytes (PBL) were obtained from venous blood of healthy volunteers by sedimentation on 2% dextran T-500 (Amersham Biosciences, USA) and subsequent centrifugations of leukocyte rich plasma.
(§3) Peripheral blood leukocytes (PBL), isolated as described above, were seeded in a 48-well plate at a concentration of 3 to 5×10^6 cell per well in culture medium consisting of RPMI 1640 medium (Institute of Immunology, Croatia) supplemented with 10% heat-inactivated fetal calf serum (FCS, Biowhittaker, USA), 100 U/ml penicillin (Gibco, Australia), 100 μg/ml streptomycin (Gibco, Australia) and 2 mM L-glutamine (Gibco, Australia), and preincubated with the test compounds for 2 h at 37° C., in an atmosphere of 5% CO2, and 90% humidity. Then, stimuli (Sigma, USA) were added to a final concentration of 2 μg/mL lipopolysaccharide (LPS), 1 μg/mL phorbol 12-myristate 13-acetate (PMA) or 120 μg/mL zymosan. Samples were incubated overnight under conditions described above. At the end of incubation, the supernatants were transferred to eppendorf tubes and centrifuged for 10 min at 1500×g. Concentrations of human TNF-α, IL-1β, IL-6 and IL-8 were determined in cell supernatants by sandwich ELISA, using capture and detection antibodies (R&D Systems, Minneapolis, Minn.) according to the manufacturer's recommendations.
(§4) Inhibition (as percentage) was calculated using the following formula: % inhibition=(1−concentration of cytokines in sample/concentration of cytokines in positive control)×100. The positive control refers to stimulated samples, not treated with substances.

IL-1α = assay: Inhibition of IL-1 production by stimulated human peripheral blood leukocytes in vitro; format: cell-based; details: PBL; for inhibition at 10 µM / inhibition at 50 µM: Homo sapiens, Leukocyte, read-out: Percentage of inhibition of IL-1α production
human granulocytes = assay: Oxidative burst inhibition assay on granulocytes (luminol); format: cell-based; details: for inhibition at 12.5 µM / inhibition at 50 µM: Homo sapiens
Procedure: (§5) Granulocytes were obtained from heparinized whole blood using density gradient centrifugation. Erythrocytes were sedimented on 3% dextran T-500 (Amersham Pharmacia Biotech AB, Uppsala, Sweden). Leukocytes were centrifuged on Ficoll (Amersham Pharmacia Biotech AB, Uppsala, Sweden) for 35 min at 600 g at 20° C. The pellet of granulocytes was cleared from remaining erythrocytes by a brief hypotonic lysis.
The effect of compounds on oxidative burst was investigated in vitro with oxidative burst assay in human granulocytes, isolated as described above. Assay was done in 96 well plate. Blood was obtained from healthy volunteers (Transfusion Center, Croatia) and human granulocytes were isolated by dextran sedimentation and ficoll extraction method, as described above. In each well 50000 isolated granulocytes were suspended in 100 μL of DMEM. Final concentrations of the tested compounds were 50 and 12.5 μM. Than, 50 μL of luminol (c=0.25 mg/mL) was added. Luminol as a detector of oxidative burst react with superoxide and light is produced as one of the reaction products. Subsequently, 50 μL of stimuli, phorbol-12-myristate acetate (PMA) (c=33 ng/mL) or Zymosan (c=120 μg/mL), were added.

IL-8 = assay: Inhibition of IL-8 production by stimulated human peripheral blood leukocytes in vitro; format: cell-based; details: PBL; for inhibition at 10 µM / inhibition at 50 µM: Homo sapiens, Leukocyte, read-out: Percentage of inhibition of IL-8 production
Procedure: as §1, §2, §3, §4

TNF-α = assay: Inhibition of TNF-α production by stimulated human peripheral blood leukocytes in vitro; format: cell-based; details: PBL; for inhibition at 10 µM / inhibition at 50 µM: Homo sapiens, Leukocyte, read-out: Percentage of inhibition of TNF-α production
Procedure: as §1, §2, §3, §4

Hep G2 = assay: MTT cytotoxicity assay on Hep G2 cell line; format: cell-based; details: human, 24 h
Procedure: (§6) To determine whether the anti-inflammatory activity of the test compounds was due to observed inhibition of cytokine production and inhibition of proliferation in vitro, and was not a consequence of cellular cytotoxicity, measurement of succinate dehydrogenase activity in living cells was performed. Cells were cultured for 24 h in RPMI medium as described above at 37° C. in the presence of the test compounds at concentrations of 50 μM and 12.5 μM. MTT [3-(4,5-dimethylthiazole-2-yl)-2,5-diphenyl tetrazolium bromide] (Promega, USA), a detection reagent, was then added and the cultures were incubated for 0.5-2 h. The amount of MTT-Formazan produced was determined using a spectrophotometer at 490 nm (Mosmann, J. Imnunol. Methods, 1983, 65: 55-63). Percentage of viable cells was calculated using the following formula:
(§7) % viable cells=([…]OD490 treated cells/OD490 nontreated cells)×100

A549 = assay: MTT cytotoxicity assay on A549 cell line; format: cell-based; details: human, 24 h
Procedure: as §6, §7

granulocytes = assay: Inhibition of degranulation of granulocytes (elastase release); format: cell-based, human; details: Homo sapiens, compound 50 μM, read-out: Percentage of inhibition of degranulation of granulocytes
Procedure: as §5
1×10^6 granulocytes, isolated as described above, were resuspended in RPMI-1640 medium (Institute of Immunology, Croatia), and were incubated with 10 or 50 μM of test compound together with cytochalasine B (5 μg/mL) for 2 h at 37° C. Degranulation then was induced by the addition of 0.1 μM fMLP (Sigma, USA) or 0.5 μM A23187 (Calbiochem, USA). The activity of free neutrophil elastase was determined with a chromogenic substrate specific for human neutrophil elastase, such as n-methoxysuccinyl-1-alanyl-1-alanyl-1-prolyl-lvalyl-p-niytoanlide (Sigma Chemical Company, St Louis, Mo., USA) Elastase activity, as a marker of primary granules, was assessed in supernatant using a spectrophotometer at an absorbance of 405 nm. Results are expressed as the percent of inhibition of degranulation in unstimulated cells, and in stimulated cells treated with fMLP or A23187.

[2] = zymosan stimulated, compound 10 μM
[3] = zymosan stimulated, compound 50 μM

SMILES: CCC1OC(=O)C(C)C(OC2CC(C)(OC)C(O)C(C)O2)C(C)C(OC2OC(C)CC(N(C)C)C2O)C(C)(O)CC(C)CN(C(=S)Nc2ccc(Cl)cc2)C(C)C(O)C1(C)O (stereo not shown) [Compound 2]
- Percentage of inhibition of proliferation of stimulated PBMC ([1]; PHA stimulated, compound 10 μM): 6%
- Percentage of inhibition of proliferation of stimulated PBMC ([1]; PHA stimulated, compound 50 μM): 97%
- Percentage of inhibition of proliferation of stimulated PBMC ([1]; PMA + ionomycin stimulated, compound 10 μM): 35%
- Percentage of inhibition of proliferation of stimulated PBMC ([1]; PMA + ionomycin stimulated, compound 50 μM): 99%
- Percentage of inhibition of IL-6 production (IL-6; LPS stimulated, compound 10 μM): 75%
- Percentage of inhibition of IL-6 production (IL-6; LPS stimulated, compound 50 μM): 100%
- Percentage of inhibition of IL-6 production (IL-6; PMA stimulated, compound 10 μM): 49%
- Percentage of inhibition of IL-6 production (IL-6; PMA stimulated, compound 50 μM): 100%
- Percentage of inhibition of IL-6 production (IL-6; [2]): 90%
- Percentage of inhibition of IL-6 production (IL-6; [3]): 100%
- Percentage of inhibition of IL-1α production (IL-1α; LPS stimulated, compound 10 μM): 77%
- Percentage of inhibition of IL-1α production (IL-1α; LPS stimulated, compound 50 μM): 98%
- Percentage of inhibition of IL-1α production (IL-1α; PMA stimulated, compound 10 μM): 18%
- Percentage of inhibition of IL-1α production (IL-1α; PMA stimulated, compound 50 μM): 97%
- Percentage of inhibition of IL-1α production (IL-1α; [2]): 92%
- Percentage of inhibition of IL-1α production (IL-1α; [3]): 98%
- % inhibition of Oxidative burst PMA (human granulocytes; PMA stimulated granulocytes, compound 12.5 μM): 19%
- % inhibition of Oxidative burst PMA (human granulocytes; PMA stimulated granulocytes, compound 50 μM): 82%
- % inhibition of Oxidative burst Zymosan (human granulocytes; Zymosan stimulated granulocytes, compound 12.5 μM): 24%
- % inhibition of Oxidative burst Zymosan (human granulocytes; Zymosan stimulated granulocytes, compound 50 μM): 98%
- Percentage of inhibition of IL-8 production (IL-8; LPS stimulated, compound 10 μM): 79%
- Percentage of inhibition of IL-8 production (IL-8; LPS stimulated, compound 50 μM): 88%
- Percentage of inhibition of IL-8 production (IL-8; PMA stimulated, compound 10 μM): 27%
- Percentage of inhibition of IL-8 production (IL-8; PMA stimulated, compound 50 μM): 58%
- Percentage of inhibition of IL-8 production (IL-8; [2]): 61%
- Percentage of inhibition of IL-8 production (IL-8; [3]): 51%
- Percentage of inhibition of TNF-α production (TNF-α; LPS stimulated, compound 10 μM): 37%
- Percentage of inhibition of TNF-α production (TNF-α; LPS stimulated, compound 50 μM): 100%
- Percentage of inhibition of TNF-α production (TNF-α; PMA stimulated, compound 10 μM): 60%
- Percentage of inhibition of TNF-α production (TNF-α; PMA stimulated, compound 50 μM): 99%
- Percentage of inhibition of TNF-α production (TNF-α; [2]): 78%
- Percentage of inhibition of TNF-α production (TNF-α; [3]): 98%

SMILES: CC[C@H]1OC(=O)[C@H](C)[C@@H](O[C@H]2C[C@@](C)(OC)[C@@H](O)[C@H](C)O2)[C@H](C)[C@@H](O[C@@H]2O[C@H](C)C[C@H](N(C)C)[C@H]2O)[C@](C)(O)C[C@@H](C)CN(C(=O)Nc2ccc(C(F)(F)F)cc2)[C@H](C)[C@@H](O)[C@]1(C)O [Compound 9]
- inhibition at 10 µM (IL-6; LPS stimulated, compound 10 μM): 0%
- inhibition at 50 µM (IL-6; LPS stimulated, compound 50 μM): 100%
- inhibition at 10 µM (IL-6; [2]): 58%
- inhibition at 50 µM (IL-6; [3]): 100%
- inhibition at 10 µM (IL-1α; LPS stimulated, compound 10 μM): 45%
- inhibition at 50 µM (IL-1α; LPS stimulated, compound 50 μM): 43%
- inhibition at 10 µM (IL-1α; [2]): 65%
- inhibition at 50 µM (IL-1α; [3]): 22%
- Percentage of viable cells after treatment (Hep G2; 12.5 μM): 92%
- Percentage of viable cells after treatment (Hep G2; 50 μM): 21%
- Percentage of viable cells after treatment (A549; 12.5 μM): 100%
- Percentage of viable cells after treatment (A549; 50 μM): 100%
- inhibition at 10 µM (IL-8; LPS stimulated, compound 10 μM): 0%
- inhibition at 50 µM (IL-8; LPS stimulated, compound 50 μM): 100%
- inhibition at 10 µM (IL-8; [2]): 0%
- inhibition at 50 µM (IL-8; [3]): 100%
- inhibition at 10 µM (TNF-α; LPS stimulated, compound 10 μM): 23%
- inhibition at 50 µM (TNF-α; LPS stimulated, compound 50 μM): 100%
- inhibition at 10 µM (TNF-α; [2]): 39%
- inhibition at 50 µM (TNF-α; [3]): 100%

SMILES: CC[C@H]1OC(=O)[C@H](C)[C@@H](O[C@H]2C[C@@](C)(OC)[C@@H](O)[C@H](C)O2)[C@H](C)[C@@H](O[C@@H]2O[C@H](C)C[C@H](N(C)C)[C@H]2O)[C@](C)(O)C[C@@H](C)C(=O)[C@H](C)[C@@H](O)[C@]1(C)O [Erythromycin, erythromycin]
- inhibition at 50 µM (granulocytes; A23187 0.5 μM stimulated): 0%
- inhibition at 50 µM (granulocytes; fMLP 0.1 μM stimulated): 23%
- inhibition at 12.5 µM (human granulocytes; PMA stimulated granulocytes, compound 12.5 μM, read-out: % inhibition of Oxidative burst PMA): 0%
- inhibition at 50 µM (human granulocytes; PMA stimulated granulocytes, compound 50 μM, read-out: % inhibition of Oxidative burst PMA): 0%
- inhibition at 12.5 µM (human granulocytes; Zymosan stimulated granulocytes, compound 12.5 μM, read-out: % inhibition of Oxidative burst Zymosan): 6%
- inhibition at 50 µM (human granulocytes; Zymosan stimulated granulocytes, compound 50 μM, read-out: % inhibition of Oxidative burst Zymosan): 41%
